From patent US20240400572A1, “COMPOUNDS AND METHODS FOR TREATING CANCERS THAT ARE MGMT DEFICIENT REGARDLESS OF MMR STATUS” (Yale University, priority 2021, published 2024)
Several values for one entry are separate records, joined by “and”; a condition that tells them apart may be missing. Identical values can stand only once. Like-named read-outs stand apart in the source and are kept apart here.

Experiment: Brain distribution study
Format: in vivo, male C57BL/6 mice
Details: PO 20 mg/kg, male C57BL/6 mice
Experimental: Compound KL50 dosing solution: 3.39% DMSO+96.61% (10% HP-β-CD in saline) at 2 mg/mL; • 1) Weigh 17.39 mg of compound KL50 into a clean tube. • 2) Add 0.295 mL DMSO into the tube containing the compound. • 3) Vortex the tube for 3 min and sonicate it for 4 min. • 4) Add 8.400 mL 10% HP-β-CD in saline into the tube and vortex the tube for 3 min. Compound I-1 dosing solution: 3.39% DMSO+96.61% (10% HP-β-CD in saline) at 2 mg/mL; • 1) Weigh 16.86 mg Compound I-1 into a clean tube. • 2) Add 0.286 mL DMSO into the tube containing the compound. • 3) Vortex the tube for 3 min and sonicate it for 4 min. • 4) Add 8.144 mL 10% HP-β-CD in saline into the tube and vortex the tube for 3 min.
The in-vivo pharmacokinetic and brain distribution study was conducted under the following parameters. Twenty seven C57BL/6 male mice were purchased from Shanghai JiHui Laboratory Animal Co. LTD. Each mouse weighted from 16 g to 17 g. The mice were fasted overnight and fed post 4 hr sampling. Compound KL50 and Compound I-I were administered via oral gavage (PO) at a dose of 20 mg/kg (10 mL/kg). After dosing, sampling was completed at 0.083, 0.167, 0.333, 0.5, 0.75, 1, 2, 4 and 8 hr post dose, with three mice sacrificed at each time point.
Terminal bleeding for plasma and brain was completed at each time point. Approximately 110 μL blood per time point was collected into a K2EDTA tube via the facial vein. The blood sample was put on wet ice and centrifuged to obtain plasma sample (2000 g, 5 min under 4° C.) within 15 minutes. Plasma samples were acidified with 6 μL of formic acid for every 54 μL of plasma. After blood collection, a mid-line incision was made in the animal's scalp and the skin was retracted. The skull overlying the brain was removed. Then, the whole brain was collected, rinsed with cold saline, dried on filtrate paper, and weighed; and then snap frozen by placing the brain into dry-ice. Plasma samples were stored at approximately −70° C. until analysis. Brain tissue was homogenized with 3 volumes (v/w) of PBS (1% FA) and then analyzed with LC-MS/MS. The concentration of study drug was corrected with a dilution factor of four as following: Brain concentration=brain homogenate conc.×4, assuming 1 g wet brain tissue equals to 1 mL

CNC(=O)c1ncn2c(=O)n(CCF)nnc12 [Compound I-1, 3-(2-fluoroethyl)-N-methyl-4-oxo-3H,4H-imidazo[4,3-d][1,2,3,5]tetrazine-8-carboxamide]
Brain Concentration/Plasma Concentration, Individuals (0.083 hr, 20 mg/kg): 0.310 and 0.329
brain Concentration, Individuals (0.083 hr, 20 mg/kg): 6300 ng/g and 6740 ng/g
Brain Concentration/Plasma Concentration, Individuals (0.167 hr, 20 mg/kg): 0.473 and 0.549
brain Concentration, Individuals (0.167 hr, 20 mg/kg): 7100 ng/g and 9110 ng/g
Brain Concentration/Plasma Concentration, Individuals (0.333 hr, 20 mg/kg): 0.606 and 0.651
brain Concentration, Individuals (0.333 hr, 20 mg/kg): 6850 ng/g and 8730 ng/g
Brain Concentration/Plasma Concentration, Individuals (0.5 hr, 20 mg/kg): 0.677 and 0.522
brain Concentration, Individuals (0.5 hr, 20 mg/kg): 4770 ng/g and 3750 ng/g
Brain Concentration/Plasma Concentration, Individuals (0.75 hr, 20 mg/kg): 0.623 and 0.560
brain Concentration, Individuals (0.75 hr, 20 mg/kg): 2500 ng/g and 1920 ng/g
Brain Concentration/Plasma Concentration, Individuals (1 hr, 20 mg/kg): 0.626 and 0.527
brain Concentration, Individuals (1 hr, 20 mg/kg): 952 ng/g and 1280 ng/g
Brain Concentration/Plasma Concentration, Individuals (2 hr, 20 mg/kg): 0.483 and 0.490
brain Concentration, Individuals (2 hr, 20 mg/kg): 155 ng/g and 345 ng/g and 90.6 ng/g
brain Concentration, Individuals (below limit) (4 hr): BQL (Below the quantifiable limit of 1.00 ng/mL or ng/g for Compound I-1 in mouse plasma and brain homogenate)
brain Concentration, Mean (below limit) (4 hr): BQL (Below the quantifiable limit of 1.00 ng/mL or ng/g for Compound I-1 in mouse plasma and brain homogenate)
brain Concentration, Individuals (below limit) (8 hr): BQL (Below the quantifiable limit of 1.00 ng/mL or ng/g for Compound I-1 in mouse plasma and brain homogenate)
brain Concentration, Mean (below limit) (8 hr): BQL (Below the quantifiable limit of 1.00 ng/mL or ng/g for Compound I-1 in mouse plasma and brain homogenate)
AUCINF (brain): 4849 ng·h/g
AUClast (brain): 4749 ng·h/g
concentration at 0.083 hr (male, C57BL/6, mouse, brain, po, 20 mg/kg, 0.083 hr, N=3, read-out: brain Concentration, Mean): 6300 ng/g
concentration at 0.083 hr (male, C57BL/6, mouse, brain, po, 20 mg/kg, 0.083 hr, read-out: brain Concentration, Individuals): 5860 ng/g
concentration at 0.167 hr (male, C57BL/6, mouse, brain, po, 20 mg/kg, 0.167 hr, N=3, read-out: brain Concentration, Mean): 7210 ng/g
concentration at 0.167 hr (male, C57BL/6, mouse, brain, po, 20 mg/kg, 0.167 hr, read-out: brain Concentration, Individuals): 5420 ng/g
concentration at 0.333 hr (male, C57BL/6, mouse, brain, po, 20 mg/kg, 0.333 hr, N=3, read-out: brain Concentration, Mean): 6840 ng/g
concentration at 0.333 hr (male, C57BL/6, mouse, brain, po, 20 mg/kg, 0.333 hr, read-out: brain Concentration, Individuals): 4950 ng/g
concentration at 0.5 hr (male, C57BL/6, mouse, brain, po, 20 mg/kg, 0.5 hr, N=3, read-out: brain Concentration, Mean): 3940 ng/g
concentration at 0.5 hr (male, C57BL/6, mouse, brain, po, 20 mg/kg, 0.5 hr, read-out: brain Concentration, Individuals): 3310 ng/g
concentration at 0.75 hr (male, C57BL/6, mouse, brain, po, 20 mg/kg, 0.75 hr, N=3, read-out: brain Concentration, Mean): 2240 ng/g
concentration at 0.75 hr (male, C57BL/6, mouse, brain, po, 20 mg/kg, 0.75 hr, read-out: brain Concentration, Individuals): 2290 ng/g
concentration at 1 hr (male, C57BL/6, mouse, brain, po, 20 mg/kg, 1 hr, N=3, read-out: brain Concentration, Mean): 1120 ng/g
concentration at 1 hr (male, C57BL/6, mouse, brain, po, 20 mg/kg, 1 hr, read-out: brain Concentration, Individuals): 1140 ng/g
concentration at 2 hr (male, C57BL/6, mouse, brain, po, 20 mg/kg, 2 hr, N=3, read-out: brain Concentration, Mean): 197 ng/g
Kp (male, C57BL/6, mouse, brain/plasma, po, 20 mg/kg, AUCbrain/AUCplasma, heading: AUCbrain/AUCplasma): 49.1%
Kp at 0.083 hr (male, C57BL/6, mouse, brain/plasma, po, 20 mg/kg, 0.083 hr, N=3, read-out: Brain Concentration/Plasma Concentration, Mean): 0.305
Kp at 0.083 hr (male, C57BL/6, mouse, brain/plasma, po, 20 mg/kg, 0.083 hr, read-out: Brain Concentration/Plasma Concentration, Individuals): 0.276
Kp at 0.167 hr (male, C57BL/6, mouse, brain/plasma, po, 20 mg/kg, 0.167 hr, N=3, read-out: Brain Concentration/Plasma Concentration, Mean): 0.501
Kp at 0.167 hr (male, C57BL/6, mouse, brain/plasma, po, 20 mg/kg, 0.167 hr, read-out: Brain Concentration/Plasma Concentration, Individuals): 0.48
Kp at 0.333 hr (male, C57BL/6, mouse, brain/plasma, po, 20 mg/kg, 0.333 hr, N=3, read-out: Brain Concentration/Plasma Concentration, Mean): 0.606
Kp at 0.333 hr (male, C57BL/6, mouse, brain/plasma, po, 20 mg/kg, 0.333 hr, read-out: Brain Concentration/Plasma Concentration, Individuals): 0.561
Kp at 0.5 hr (male, C57BL/6, mouse, brain/plasma, po, 20 mg/kg, 0.5 hr, N=3, read-out: Brain Concentration/Plasma Concentration, Mean): 0.575
